From the supplement of paper PMC10307832

Tests used:
Assay in all cases: relative viability (nuclei count vs DMSO), 5 days (fraction); higher = more cells survive
[1] = compound: O=C(CCCCCCNC(=O)c1cnc(N(c2ccccc2)c2ccccc2)nc1)NO [Ricolinostat] + C[C@]1(O)C[C@@H](c2nc(-c3ccc4ccc(-c5ccccc5)nc4c3)c3c(N)nccn32)C1 [Linsitinib] (partner 1 µM)
Procedure, shortened: (§1)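 One day after seeding in 1536-well plates, lung cancer cell lines were dosed by pin tool. Dosing was either single-drug or a fixed anchor-drug dose plus five library-drug doses (not always all listed) in √10 steps. After 5 days, nuclei were stained in one fix-and-stain step and counted on 4× images, and relative viability is the nuclei count of treated wells over that of vehicle wells, given as the median of duplicate plates.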

[2] = compound: O=C(CCCCCCNC(=O)c1cnc(N(c2ccccc2)c2ccccc2)nc1)NO [Ricolinostat] + CC(=O)Nc1cccc(-n2c(=O)n(C3CC3)c(=O)c3c(Nc4ccc(I)cc4F)n(C)c(=O)c(C)c32)c1 [Trametinib] (partner 0.02 µM)
Procedure, shortened: as §1

[3] = compound: C1=CC=C(C(=C1)C2=CC=C(C=C2)C3=CSC4=C3C(=C(C(=O)N4)C#N)O)O + CC1(C)CCC(c2ccc(Cl)cc2)=C(CN2CCN(c3ccc(C(=O)NS(=O)(=O)c4ccc(N[C@H](CCN5CCOCC5)CSc5ccccc5)c(S(=O)(=O)C(F)(F)F)c4)cc3)CC2)C1 [Navitoclax] (partner 0.5 µM)
Procedure, shortened: as §1

TGX 221 + OSI-027 = compound: CC1=CN2C(=O)C=C(N=C2C(=C1)C(C)NC3=CC=CC=C3)N4CCOCC4 [TGX 221] + COc1cccc2cc(-c3nc([C@H]4CC[C@H](C(=O)O)CC4)n4ncnc(N)c34)[nH]c12 [OSI-027] (partner 0.5 µM)
Procedure, shortened: as §1

Cell Line | relative viability ([1]; first compound 0.08 µM) | relative viability ([1]; first compound 0.253 µM) | relative viability ([1]; first compound 0.8 µM) | relative viability ([1]; first compound 2.53 µM) | relative viability ([2]; first compound 0.08 µM) | relative viability ([2]; first compound 0.253 µM) | relative viability ([2]; first compound 0.8 µM) | relative viability ([2]; first compound 2.53 µM) | relative viability ([3]; first compound 0.253 µM) | relative viability ([3]; first compound 2.53 µM) | relative viability ([3]; first compound 8 µM) | relative viability (TGX 221 + OSI-027; first compound 0.08 µM) | relative viability (TGX 221 + OSI-027; first compound 0.253 µM) | relative viability (TGX 221 + OSI-027; first compound 0.8 µM) | relative viability (TGX 221 + OSI-027; first compound 2.53 µM) | relative viability (TGX 221 + OSI-027; first compound 8 µM) | relative viability ([3]; first compound 0.8 µM) | relative viability ([3]; first compound 0.08 µM)
NCI-H441 | 0.478 | 0.62 | 0.624 | 0.396 | 0.259 | 0.521 | 0.629 | 0.697 | 0.644 | 0.837 | 0.604 | 0.58 | 0.698 | 0.576 | 0.728 | 0.665 | – | –
NCI-H460 | 0.468 | 0.774 | 0.731 | 0.58 | 0.114 | 0.169 | 0.184 | 0.0996 | 0.414 | 1.31 | 0.271 | 0.666 | 0.566 | 0.713 | 0.56 | 0.504 | 1.43 | –
NCI-H520 | – | 0.991 | 1.02 | 0.869 | – | 0.735 | 0.621 | 0.613 | 1.15 | 1.11 | 0.891 | 0.212 | 0.165 | 0.227 | 0.188 | 0.195 | 1.2 | 1.08
NCI-H596 | 1.09 | 1.05 | 1 | 1.09 | 0.818 | 0.751 | 0.785 | 0.904 | 1.32 | 0.951 | 0.787 | 0.748 | 0.688 | 0.803 | 0.487 | 0.693 | 0.955 | 0.791
NCI-H647 | 1.13 | 1.23 | 1.16 | 0.698 | 0.372 | 0.464 | 0.51 | 0.564 | 1.16 | 1.21 | 0.741 | 0.475 | 0.562 | 0.483 | 0.517 | 0.425 | 1.24 | 0.877
NCI-H727 | 0.212 | 0.269 | 0.333 | 0.354 | 0.383 | 0.416 | 0.412 | 0.355 | 0.478 | 0.409 | 0.479 | 0.556 | 0.478 | 0.693 | 0.529 | 0.566 | 0.48 | 0.426
NCI-H838 | 0.944 | 1.01 | 1.1 | 0.9 | 0.495 | 0.546 | 0.548 | 0.375 | 1.07 | 1.12 | 0.979 | 0.399 | 0.326 | 0.326 | 0.365 | 0.355 | 1.22 | 1.16
NCI-H1355 | – | 0.79 | 0.735 | 0.716 | 0.411 | 0.43 | 0.346 | 0.412 | 1.02 | 0.957 | 0.777 | 0.377 | 0.427 | 0.385 | 0.314 | 0.331 | 0.935 | 1.1
NCI-H1395 | – | 1.2 | 1.05 | 1.04 | – | 0.957 | 1.08 | 1.2 | 1.21 | 1.05 | 1.12 | 0.542 | 0.525 | 0.61 | 0.475 | 0.544 | 1.15 | –
NCI-H1437 | 0.805 | 1.03 | 0.98 | 0.647 | 0.458 | 0.502 | 0.392 | 0.356 | 1.16 | 1.13 | 0.881 | 0.878 | 0.899 | 0.809 | 0.848 | 0.728 | 1.18 | 1.06
NCI-H1651 | 0.72 | 0.871 | 0.93 | 0.816 | 0.768 | 0.794 | 0.83 | 0.835 | 0.941 | 1.1 | 0.642 | 0.555 | 0.632 | 0.63 | 0.59 | 0.586 | 1.05 | 1.07
NCI-H1666 | 0.799 | 0.806 | 0.745 | 0.468 | 0.872 | 0.869 | 0.84 | 0.879 | 1.03 | 0.944 | 0.879 | 0.836 | 0.81 | 0.831 | 0.819 | 0.887 | 0.876 | 0.946
NCI-H1734 | 0.737 | 0.843 | 0.961 | 1 | 0.582 | 0.629 | 0.682 | 0.785 | 0.979 | 0.972 | 0.492 | 0.57 | 0.579 | 0.621 | 0.527 | 0.532 | 0.886 | 0.793
NCI-H1755 | 0.901 | – | 0.994 | 0.966 | 0.694 | 0.678 | 0.814 | 0.779 | 1.13 | 1.08 | 0.78 | 0.685 | 0.728 | 0.605 | 0.657 | 0.697 | 0.98 | 1.03
NCI-H1793 | – | 0.802 | 0.743 | 0.81 | 0.327 | 0.389 | 0.435 | 0.444 | 0.753 | 0.443 | 0.359 | 0.249 | 0.237 | 0.248 | 0.183 | 0.218 | 0.41 | 0.406
NCI-H1915 | 1.01 | 1.04 | 1.02 | 1.01 | 0.261 | 0.31 | 0.309 | 0.3 | 0.769 | 0.826 | 0.771 | 0.575 | 0.601 | 0.63 | 0.472 | 0.619 | 0.83 | 0.811
NCI-H1944 | 0.976 | 1.11 | 1.1 | 0.895 | 0.46 | 0.469 | 0.442 | 0.407 | 1.03 | 1.1 | 1.08 | 0.377 | 0.39 | 0.397 | 0.409 | 0.388 | 1.02 | 1.05
NCI-H1975 | 0.998 | 0.878 | – | 0.835 | 0.374 | 0.368 | 0.33 | 0.326 | 1.25 | 1.22 | 0.731 | 0.694 | 0.676 | 0.653 | 0.528 | 0.555 | 1.15 | 0.958
